Measured values reported in patent publication US7968535B2, “Use of azapaullones for preventing and treating pancreatic autoimmune disorders” (Develogen Atkiengesellschaft, priority 2005, dated 2011).

Assays:
[1] = test system: Pax4 gene; test: Pax4 transcription by quantitative real time RT-PCR; type: cell-based, rat
Experimental: FIG. 11 illustrates a representative experiment in which the relative Pax4 levels were quantified using quantitative real time RT-PCR. […] Data are presented as relative levels to the basal Pax4 expression level in INS-1E cells only treated with the vehicle (Co.). Activin-A (1 nM) treated INS-1E cells serve as a positive control.
The response of the Pax4 gene to test compounds was investigated in the rat insulinoma cell line INS-1E. INS-1E cells are known to express Pax4 and to upregulate Pax4 levels in response to the treatment with activin-A and betacellulin. In the search for novel beta cell mitogens and/or beta cell protective agents the inventors treated INS-1E cells with test compound 10c. Compound 10c induces the relative Pax4 expression about 5-fold compared to the control and compared to 1 nM activin A (FIG. 11).
INS-1E cells were cultured as described (Merglen, (2004) Endocrinology; 145: 667-678). Cells were seeded at a density of 2×10^4 cells per cm^2 6 to 8 days before the treatment with chemicals. During the growth period the medium was changed once. […]
Total RNA from 8×10^4 cells growing on 4 cm^2 surface area of a tissue culture dish was extracted using Qiagen RNAeasy kit according to the instructions of the manufacturer (Qiagen) and 2 μg was converted into cDNA. […] Quantitative real-time PCR was performed using Applied Biosystems SDS 7000 detection system. […]

[2] = test system: INS-1E cells; test: Glucolipotoxicity induced apoptosis of INS-1E cells (overall assessment); type: cell-based, rat; settings: palmitate and glucose, 24 hours
Experimental: (§1) The effects of the substance on cell viability, cell growth and specific apoptotic events such as caspases activity and DNA-fragmentation was monitored. INS-1E cell apoptosis was induced by treatment of cell cultures with toxic concentrations of glucose and palmitate for 24 hours. The substance of interest was added to the medium 1 hour prior to the addition of the toxic agents.
The effects of the test compounds on beta cell function were assessed using biological assays monitoring cellular metabolic activity as well as specific apoptotic events in Ins-1E cells.
(§2) 10,000 Ins-1E cells were seeded per 96-well (black 96-well tissue culture plates, Falcon #353948) in 100 μl culture medium (RPMI 1640 containing 11 mM glucose, 5% FCS, 10 mM HEPES, 50 μM 2-mercaptoethanol, 1 mM MEM sodium pyruvate, 100 U/ml penicillin, 100 μg/ml streptomycin) and cultivated at 37° C., 5% CO2 in humidified atmosphere for 3 days. Media was changed to 100 μl starvation medium (culture medium with only 5 mM glucose, 1% FCS) and the cells were re-incubated for 1 day. Then media was exchanged to starvation medium containing test substances.
(§3) Apoptosis of Ins-1E cells was induced by addition of a combination of BSA coupled palmitate and glucose (pal/gluc) or a combination of cytokines (cyt) 1 hour after starting the treatment with test substances: pal/gluc: 0.3 mM palmitate:BSA (palmitic acid sodium salt:fatty acid free BSA 6:1) and 25 mM glucose. 10×cyt: 0.04 ng/ml IL-1β and 1 ng/ml IFNγ. The cells were further incubated with test substances and apoptotic inducer for 24 hours.

[3] = test system: INS-1E cells; test: Caspase activity assay in glucose/palmitate stressed cells; type: cell-based, rat; settings: 2.5 μM
Experimental: as §1
Caspase activation is a characteristic of early apoptotic cells. The experiment was carried out as described above with the exception that the caspases activity assay was applied instead of the DNA-fragmentation assay (see Example 3 for details).
as §2, §3
Caspase activity is a characteristic of early apoptotic cells. Their activity was quantified by an enzymatic assay (homogeneous caspases assay, Roche, cat. No. 03 005 372 001). Caspase activity was measured 3 hours after addition of caspases substrate according to the manufacturers guidelines.

[4] = test system: INS-1E cells; test: DNA-fragmentation ELISA in glucose/palmitate stressed cells; type: cell-based, rat; settings: 2.5 μM, glucose/palmitate 24 hours
Experimental: as §1
DNA-fragmentation is a comparatively late apoptotic event comprising storage of nucleosomal DNA-fragments as mono- and oligo nucleosomes in the cytoplasm. The incubation of INS1-E cells with high concentrations of glucose and palmitate for 24 hours leads to DNA breakdown and the accumulation of nucleosomal DNA fragments in the cytoplasm. The detectable amount of cytosolic nucleosomal DNA fragments was reduced by about 17%, when cells were treated with the apoptosis inducing agents in combination with 10 μM 4-AKP.
as §2, §3
DNA-fragmentation is a late apoptotic event comprising storage of nucleosomal DNA-fragments as mono- and oligo nucleosomes in the cytoplasm. Their concentration was determined by ELISA (Cell death detection ELISA, Roche, cat. No. 1774425) according to the manufacturers guidelines.

[5] = biological target: T1, cyclin dependent kinase 1 (Homo sapiens, UniProt P06493); test: IC50 Profiler Express kinase assay; type: biochemical
T1 construct: purchased Upstate Ltd. (IC50 Profiler Express service)
Experimental: (§4) Experiments were carried out by Upstate Ltd. according to the protocols described in KinaseProfiler™ Assay Protocols, IC50 Profiler Express™ (10-point curves in duplicate) Fall 2004 by Ustate Cell Signaling solutions.

[6] = test system: human GSK3; test: IC50 Profiler Express kinase assay; type: biochemical; settings: 10-point curves in duplicate
Experimental: as §4

[7] = test system: panel of 28 protein kinases; test: KinaseProfiler biochemical kinase activity assays; settings: tested in parallel with 1-Azakenpaullone
Experimental: Experiments were carried out by Upstate Ltd. according to the protocols described in KinaseProfiler™ Assay Protocols Fall 2004 by Ustate Cell Signaling solutions.
Compounds 10c and e are structurally very similar to 1-Azakenpaullone and differ only by one substituent at position 9 of the D ring from their template 1-Azakenpaullone. […] These kinases were selected among about 250 different kinases based on their structural or functional similarity to GSK3, e.g. all available members of the CDK family were included in the survey because CDKs are most similar to GSK3 and several kinase inhibitors are known that inhibit members of both families. The direct comparison of different compounds in such an experiment provides information on the relative selectivity of the respective compounds.

T1 sequence (P06493 whole entry, species assumed): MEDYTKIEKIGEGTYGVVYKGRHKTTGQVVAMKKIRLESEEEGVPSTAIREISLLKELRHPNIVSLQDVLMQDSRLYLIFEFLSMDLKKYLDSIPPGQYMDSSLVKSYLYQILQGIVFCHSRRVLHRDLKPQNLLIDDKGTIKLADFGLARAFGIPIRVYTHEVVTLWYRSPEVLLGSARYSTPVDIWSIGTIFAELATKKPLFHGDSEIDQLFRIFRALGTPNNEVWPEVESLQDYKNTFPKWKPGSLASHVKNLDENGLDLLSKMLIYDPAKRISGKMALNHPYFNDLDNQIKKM
T1 sequence (P14635 whole entry partner, species assumed): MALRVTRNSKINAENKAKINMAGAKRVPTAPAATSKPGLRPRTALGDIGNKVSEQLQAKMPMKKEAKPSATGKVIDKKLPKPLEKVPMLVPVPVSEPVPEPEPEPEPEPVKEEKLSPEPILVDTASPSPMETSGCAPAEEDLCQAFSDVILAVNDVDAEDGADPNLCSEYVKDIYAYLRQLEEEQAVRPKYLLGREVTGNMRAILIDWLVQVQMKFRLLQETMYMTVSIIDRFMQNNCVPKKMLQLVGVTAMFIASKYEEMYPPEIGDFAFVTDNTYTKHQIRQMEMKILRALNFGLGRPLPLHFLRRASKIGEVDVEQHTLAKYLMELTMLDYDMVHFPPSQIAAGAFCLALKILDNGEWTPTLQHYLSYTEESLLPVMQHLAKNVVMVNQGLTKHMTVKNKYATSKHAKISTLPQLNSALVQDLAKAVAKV

N#Cc1ccc2[nH]c3c(c2c1)CC(=O)Nc1cccnc1-3 [Compound 10c, 6-Oxo-5,6,7,12-tetrahydropyrido[3′,2′:2,3]azepino[4,5-b]indole-9-carbonitrile]
Pax4 gene transcription ([1]; 2 μM): transiently induce Pax4 gene transcription
relative Pax4 expression compared to the control ([1]; INS-1E cells, vehicle control): about 5 fold
effect on glucolipotoxicity induced apoptosis [2]: strongly antagonizes glucolipotoxicity induced apoptosis
reduction of caspase activity [3]: 77%
reduction of cytosolic DNA-fragments [4]: 74%
affinity to CDK1 relative to 1-Azakenpaullone [5]: higher affinity to CDK1 than the reference compound 1-Azakenpaullone
inhibition of the enzymatic activity of cyclin dependent kinase 1 ([5]; compared with GSK3): comparatively higher concentration of this inhibitor are required
inhibition of human GSK3 [6]: potent inhibitor
kinase selectivity / activity profile [7]: selective kinase inhibitors
